We go through one compound from US20100216848A1, “LIQUID PHARMACEUTICAL COMPOSITIONS FOR PARENTERAL ADMINISTRATION OF A SUBSTITUTED AMIDE” (priority 2007, published 2010).

A short description of series [1]: Aqueous solubility of Compound I. Type of series: physicochemical. To be noted: water.
A short description of series [2]: Solubility of Compound I anhydrous Polymorph B in various liquid vehicles (suspension equilibrated at least 24 hours, filtered, HPLC). In kind it is physicochemical. To be noted: aqueous with cosolvent or surfactant or cyclodextrin, thermodynamic from solid. On the procedure: Solubility determinations were carried out at room temperature unless otherwise specified. Solubility of N-[1S,2S]-3-(4-chlorophenyl)-2-(3-cyanophenyl)-1-methylpropyl]-2-methyl-2-{[5-trifluoromethyl]pyridine-2-yl}oxy}propanamide (Compound I) as anhydrous unsolvated Polymorph B (such as prepared in Preparatory Example 2) was determined by preparing a suspension of anhydrous Polymorph B of Compound I in the solvent system. After equilibration for at least 24 hours, the suspension was filtered and the supernatant was analyzed by HPLC. Chromatography was performed on either a Vydac C18 300 Å 250×4.6 mm 5 μm particle size with in-line Phenomenex Security Guard w/C18 cartridge or on a Polaris C18-Ether columns or on a Polaris C8-Ether columns using 0.1% phosphoric acid in combination with methanol or acetonitrile depending on HPLC conditions. The compound was detected at 220 and 272 nm wavelength and assayed using standard curves. The results are presented below in Table 1, calculated based on mg/g vehicle.

As to `C[C@H](NC(=O)C(C)(C)Oc1ccc(C(F)(F)F)cn1)[C@@H](Cc1ccc(Cl)cc1)c1cccc(C#N)c1` [Compound I, N-[1S,2S]-3-[(4-chlorophenyl)-2-(3-cyanophenyl)-1-methylpropyl]-2-methyl-2-{[(5-trifluoromethyl)pyridine-2-yl]oxy}propanamide], the solubility in series [1] is below 0.4 µg/mL; in series [2] (40% H2O, 35% Captisol, 15% glycerol, 10% EtOH, 40% H20, room temperature), 20 µg/mL; in series [2] (50% H2O, 25% PG, 25% PEG300, 50% H20, room temperature), 70 µg/mL; in series [2] (90% H2O, 10% glycerol, 90% H20, room temperature), below 1 µg/mL; in series [2] (94.5% H2O, 0.5% Tween80, 5% EtOH, 94.5% H20, room temperature), 80 µg/mL; in series [2] (95.5% H2O, 0.5% Tween80, 95.5% H20, room temperature) it was 80 µg/mL. Moreover, the solubility in series [2] (97.5% H2O, 2.5% Tween80, 97.5% H20, room temperature) was 400 µg/mL; in series [2] (99.75% H2O, 0.25% Tween80, 99.75% H20, room temperature), 40 µg/mL; in series [2] (0.5% Tween80, 95.5% Saline, room temperature), 80 µg/mL; in series [2] (10% EtOH, 90% H2O, room temperature), below 1 µg/mL; in series [2] (15% glycerol, 10% EtOH, 75% H2O, room temperature), below 1 µg/mL; in series [2] (25% PEG400, 75% H2O, room temperature), 4 µg/mL. In series [2] (35% hydroxypropyl beta cyclodextrin, 18% glycerol, 10% EtOH, 37% H20, room temperature), the solubility stood at 40 µg/mL.
